Test results from patent US7776845B2, “Pharmaceutical compositions” (Harbor Biosciences, Inc., priority 1999, dated 2010).

Assays:
androgen receptor (AR) [1] = molecular target: T1, androgen receptor (AR) (Homo sapiens, UniProt P10275); assay: Anti-adiol activity: modulation of AED-induced AR transactivation (MMTV-CAT assay); type: cell-based; conditions: PC-3 cells, pSG5 AR + MMTV-CAT, 50 nM AED, compound at 10, 100 or 1000 nM; FIG. 2B
T1 construct: expressed in transfected cells; host or cells: PC-3 (AR-negative human prostate cancer cell line)
T1 sequence (P10275 1-920): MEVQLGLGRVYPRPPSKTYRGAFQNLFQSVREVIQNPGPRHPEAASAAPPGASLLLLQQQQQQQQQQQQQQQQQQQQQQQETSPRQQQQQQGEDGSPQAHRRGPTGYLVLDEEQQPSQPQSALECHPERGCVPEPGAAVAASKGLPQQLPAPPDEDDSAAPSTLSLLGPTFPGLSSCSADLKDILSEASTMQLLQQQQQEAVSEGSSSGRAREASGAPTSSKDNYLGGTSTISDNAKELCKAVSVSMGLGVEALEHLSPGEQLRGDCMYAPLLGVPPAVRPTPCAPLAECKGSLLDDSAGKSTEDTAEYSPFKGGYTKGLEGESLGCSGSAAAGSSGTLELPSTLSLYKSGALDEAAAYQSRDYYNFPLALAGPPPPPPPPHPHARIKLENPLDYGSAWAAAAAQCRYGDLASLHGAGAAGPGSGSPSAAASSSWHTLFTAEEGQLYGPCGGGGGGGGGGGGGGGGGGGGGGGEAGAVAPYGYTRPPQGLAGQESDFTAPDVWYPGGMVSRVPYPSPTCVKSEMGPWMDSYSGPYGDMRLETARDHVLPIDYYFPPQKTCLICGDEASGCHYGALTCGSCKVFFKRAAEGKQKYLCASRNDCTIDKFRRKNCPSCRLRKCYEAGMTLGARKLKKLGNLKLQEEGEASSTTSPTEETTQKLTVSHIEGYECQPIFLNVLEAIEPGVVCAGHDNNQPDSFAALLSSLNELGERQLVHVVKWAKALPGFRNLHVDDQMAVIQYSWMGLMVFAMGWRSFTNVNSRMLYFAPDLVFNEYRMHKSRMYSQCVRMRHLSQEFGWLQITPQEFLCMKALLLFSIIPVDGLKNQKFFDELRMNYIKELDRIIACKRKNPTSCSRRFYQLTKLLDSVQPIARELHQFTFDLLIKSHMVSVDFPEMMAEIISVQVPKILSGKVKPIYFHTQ
Description: (§1) AR activity assay. […] Ethynyl derivatized steroids were purchased from Steraloids.

androgen receptor (AR) [2] = molecular target: T1, androgen receptor (AR); assay: Induction of AR-mediated transcriptional activity (MMTV-CAT reporter assay); type: cell-based; conditions: PC-3 cells co-transfected with AR plasmid and MMTV-CAT; compounds at 1000, 10 and 0.1 nM; FIG. 1
Protocol: as §1
Induction of AR-mediated transcriptional activity. Steroid compounds were screened for their ability to induce AR transcriptional activity in the AR-negative PC-3 cell line. The results of the CAT assay were obtained by transient co-transfection of AR plasmid and a reporter plasmid (MMTVCAT) containing the CAT gene linked to the androgen response element (ARE). After transfection, the cells were treated with various DHEA derivatives at 1000, 10, and 0.1 nM.

[3] = molecular target: T2, progesterone receptor (PR) (Homo sapiens, UniProt P06401); assay: Steroid hormone specificity: MMTV-CAT reporter with PR in PC-3 cells; conditions: PC-3 cells transfected with MMTV-CAT and PR; FIG. 5
T2 sequence (P06401 1-933): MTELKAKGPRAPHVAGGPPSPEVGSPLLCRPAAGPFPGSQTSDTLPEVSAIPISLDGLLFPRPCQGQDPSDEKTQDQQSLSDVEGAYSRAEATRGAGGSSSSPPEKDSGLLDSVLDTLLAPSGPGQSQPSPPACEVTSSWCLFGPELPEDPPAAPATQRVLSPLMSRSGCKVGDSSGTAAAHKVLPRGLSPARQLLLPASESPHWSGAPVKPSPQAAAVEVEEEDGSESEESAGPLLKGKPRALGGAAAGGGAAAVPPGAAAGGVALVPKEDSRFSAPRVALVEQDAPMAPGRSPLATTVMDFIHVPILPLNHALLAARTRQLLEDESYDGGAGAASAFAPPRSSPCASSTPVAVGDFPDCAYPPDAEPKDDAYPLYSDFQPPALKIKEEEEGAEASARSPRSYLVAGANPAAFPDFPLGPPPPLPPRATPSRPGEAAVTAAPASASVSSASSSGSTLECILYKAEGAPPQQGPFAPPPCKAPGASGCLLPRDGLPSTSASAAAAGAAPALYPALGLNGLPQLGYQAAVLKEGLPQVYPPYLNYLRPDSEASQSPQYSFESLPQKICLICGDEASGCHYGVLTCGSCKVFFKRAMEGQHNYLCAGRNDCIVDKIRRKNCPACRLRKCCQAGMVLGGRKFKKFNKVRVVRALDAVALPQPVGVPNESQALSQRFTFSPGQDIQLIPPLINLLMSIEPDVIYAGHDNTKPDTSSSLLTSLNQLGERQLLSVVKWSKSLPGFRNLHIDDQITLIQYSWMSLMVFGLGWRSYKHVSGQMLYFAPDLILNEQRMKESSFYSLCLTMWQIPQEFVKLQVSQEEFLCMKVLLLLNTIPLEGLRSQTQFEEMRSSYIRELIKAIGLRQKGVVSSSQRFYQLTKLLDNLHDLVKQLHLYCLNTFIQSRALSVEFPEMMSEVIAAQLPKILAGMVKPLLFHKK
Protocol: Ethynyl derivatized steroids were purchased from Steraloids. The plasmid pSG5-wild-type AR (pSG5) and mouse mammalian tumor virus (MMTV)-chloramphenicol acetyltransferase (CAT) were constructed as described (6). […] The human prostate cancer cell line, PC-3, and human breast cancer cell line, MCF-7, were maintained in Dulbecco's modified eagles medium (DMEM) containing 10% fetal calf serum. DNA transfection and CAT assays were performed essentially as described (4, 6, 7). Briefly, 4×10^5 cells were plated on 60 mm dishes 24 h before transfection, and the medium was changed to DMEM (without phenol red) with 10% charcoal-stripped fetal calf serum 1 hour before transfection. The cells were transfected using the calcium phosphate precipitation method. The total amount of DNA was adjusted to 8.5 μg with pSG5 in each transfection assay. After transfecting the cells for 24 hours, the transfection medium was removed, fresh DMEM was added and steroids were added. The cells were then incubated in DMEM with steroids for 24 hours. After incubation, the cells were harvested and whole cell extracts were used for CAT assay. Transfection efficiency was normalized by cotransfection with a βgalactosidase vector, which acted as an internal control. The CAT enzyme activity was quantitated by phosphor imager according to the manufacturer's instructions (Molecular Dynamics).

androgen receptor (AR) [4] = molecular target: T1, androgen receptor (AR); assay: Suppression of AED-induced AR transcriptional activity in the presence of HF (MMTV-CAT assay); type: cell-based; conditions: PC-3 cells, 1 μM HF, 50 nM AED; FIG. 4
Description: as §1

Row | Molecule | effect on AED-mediated AR transcriptional activity (androgen receptor (AR) [1]) | androgenic activity (AR-mediated CAT gene transactivation) (androgen receptor (AR) [2]) | PR activity [3] | suppression of AED-mediated AR transcription activity by HF (androgen receptor (AR) [4])
1 | COC(=O)O[C@H]1CC[C@@]2(C)C(=CC(=O)[C@@H]3[C@@H]2CC[C@]2(C)C(=O)CC[C@@H]32)C1 [Compound 10, 3β,-methylcarbonate-androst-5-en-7,17-dione] | antagonized AED-mediated AR transcriptional activity | little androgenic activity |  | 
2 | C[C@]12CC[C@H]3[C@@H](C(=O)C=C4C[C@@H](O)CC[C@@]43C)[C@@H]1CC[C@@H]2O [Compound 22, 7-oxo-androstene-3β,17β-diol] | either activation of AED-mediated AR transcriptional activity or they have no effect | little androgenic activity |  | 
3 | C#C[C@]1(O)CCC2C3CCc4cc(O)ccc4C3CC[C@@]21C (stereo partly drawn) [Compound 4, 1, 3, 5(10)-estratriene-17α-ethynyl-3β,17β-diol] |  |  | some weak PR activity | 
4 | C[C@]12CC[C@H]3[C@@H](CC=C4C[C@@H](O)CC[C@@]43C)[C@@H]1CC(=O)[C@@H]2O [Compound 8, 3β,17β-dihydroxy-androst-5-en-16-one] | antagonized AED-mediated AR transcriptional activity | little androgenic activity |  | 
5 | CC(C)(O)C(=O)Nc1ccc([N+](=O)[O-])c(C(F)(F)F)c1 [HF, hydroxyflutamide] |  |  |  | about 40%
6 | 3β-methoxy-androst-5-ene-?,17β-diol [Compound 16] |  | little androgenic activity |  | 
7 | CO[C@H]1CC[C@@]2(C)C(=CC(=O)[C@H]3[C@@H]4CC[C@H](O)[C@@]4(C)CC[C@@H]32)C1 [Compound 15, 3β-methoxy-17β-hydroxy-androst-5-ene-7-one] | either activation of AED-mediated AR transcriptional activity or they have no effect | little androgenic activity |  | 
8 | C#C[C@]1(O)CCC2C3CC=C4C[C@@H](O)CC[C@]4(C)C3CC[C@@]21C (stereo partly drawn) [Compound 6, 17α-ethynyl-androst-5-ene-3β,17β-diol] | antagonized AED-mediated AR transcriptional activity | little androgenic activity |  | 
9 | 17-methyl-marrianolic acid [Compound 18] | either activation of AED-mediated AR transcriptional activity or they have no effect | little androgenic activity |  | 
10 | C[C@]12C[C@H](O)[C@H]3[C@@H](CC=C4C[C@@H](O)CC[C@@]43C)[C@@H]1CC[C@@H]2O [Compound 5, androst-5-ene-3β,11β,17β-triol] | either activation of AED-mediated AR transcriptional activity or they have no effect | little androgenic activity |  | 
11 | 3β,17β-diacetoxy-androst-5-ene-7α,17β-diol [Compound 13] | either activation of AED-mediated AR transcriptional activity or they have no effect | little androgenic activity |  | 
